Assay results from ChEMBL document CHEMBL1138992, “New benzimidazoles as thrombopoietin receptor agonists” (Bioorg Med Chem Lett, 2006).

What follows are compounds tested against T1, Thrombopoietin receptor (Homo sapiens) (UniProt P40238) (assay: (§1) Agonist activity as induced proliferation in Ba/F3-hTpoR murine lymphocyte expressing human TPOR).
T1 sequence (whole entry): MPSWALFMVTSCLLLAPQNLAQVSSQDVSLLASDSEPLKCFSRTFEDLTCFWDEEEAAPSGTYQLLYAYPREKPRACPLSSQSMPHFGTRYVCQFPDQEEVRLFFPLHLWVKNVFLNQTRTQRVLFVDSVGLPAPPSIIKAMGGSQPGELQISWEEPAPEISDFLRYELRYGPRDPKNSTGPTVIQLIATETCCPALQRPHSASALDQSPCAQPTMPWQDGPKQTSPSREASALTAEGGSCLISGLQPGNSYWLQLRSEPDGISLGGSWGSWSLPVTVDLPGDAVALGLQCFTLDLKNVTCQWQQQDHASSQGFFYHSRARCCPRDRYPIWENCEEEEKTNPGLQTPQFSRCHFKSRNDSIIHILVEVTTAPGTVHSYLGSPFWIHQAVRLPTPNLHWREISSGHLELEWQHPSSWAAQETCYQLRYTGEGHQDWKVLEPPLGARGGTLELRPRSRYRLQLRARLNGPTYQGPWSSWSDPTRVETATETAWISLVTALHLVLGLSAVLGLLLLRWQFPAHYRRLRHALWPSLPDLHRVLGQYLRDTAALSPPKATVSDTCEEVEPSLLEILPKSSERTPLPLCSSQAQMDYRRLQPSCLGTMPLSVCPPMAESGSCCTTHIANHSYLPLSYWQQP
Format: functional

Row | Efficacy | Structure (SMILES)
1 | 117% | Cc1ccc(-c2ccc(-c3nc4cc(/C=C5\SC(=S)NC5=O)ccc4[nH]3)s2)cc1C
2 | 19% | O=C1NC(=S)S/C1=C\c1ccc2[nH]c(-c3cccc(-c4ccc(Cl)c(Cl)c4)n3)nc2c1
3 | 109% | C/C(=C\c1ccc2[nH]c(-c3cccc(-c4ccc(C(C)(C)C)cc4)n3)nc2c1)C(=O)O
4 | 90% | CC(C)(C)c1ccc(-c2cccc(-c3nc4cc(/C=C5\SC(=S)NC5=O)ccc4[nH]3)n2)cc1
5 | 73% | Cc1ccc(-c2cccc(-c3nc4cc(/C=C5\SC(=S)NC5=O)ccc4[nH]3)n2)cc1C
6 | 134% | CC(C)(C)c1ccc(-c2cccc(-c3nc4cc(/C=C5\SC(=S)NC5=O)ccc4[nH]3)c2O)cc1
7 | 142% | CC(C)(C)c1ccc(-c2ccc(-c3nc4cc(/C=C5\SC(=S)NC5=O)ccc4[nH]3)o2)cc1
8 | 137% | CC(C)(C)c1ccc(-c2cccc(-c3nc4cc(/C=C5\SC(=S)NC5=O)ccc4[nH]3)c2)cc1
9 | 123% | Cc1ccc(-c2csc(-c3nc4cc(/C=C5\SC(=S)NC5=O)ccc4[nH]3)c2)cc1C
10 | 13% | CC(C)(C)c1ccc(-c2cccc(-c3nc4cc(CC(C(=O)O)C(=O)O)ccc4[nH]3)n2)cc1

The compounds below were run against T2, Thrombopoietin receptor (Homo sapiens, UniProt P40238) (assay: as §1).
T2 sequence (P40238 whole entry): T1 sequence (whole entry)
Format: functional

Row | EC50 | Structure (SMILES)
11 | Not Active | Cc1ccc(-c2cccc(-c3nc4c(/C=C5\SC(=S)NC5=O)cccc4[nH]3)n2)cc1C
12 | Not Active | CCOC(=O)/C(C)=C/c1ccc2[nH]c(-c3cccc(-c4ccc(C(C)(C)C)cc4)n3)nc2c1
13 | Not Active | Cc1ccc(-c2cccc(-c3nc4c(C=C(C(=O)O)C(=O)O)cccc4[nH]3)n2)cc1C
14 | Not Active | C/C(=C\c1cccc2[nH]c(-c3cccc(-c4ccc(C)c(C)c4)n3)nc12)C(=O)O
